Assay results taken from ChEMBL document CHEMBL1137145, “Benzodiazepine inhibitors of the MMPs and TACE. Part 2” (Bioorg Med Chem Lett, 2004).

How the values were obtained:
[1] = Ability to inhibit LPS-stimulated TNF production in THP-1 cells at 3 uM concentration; assay type: functional; conditions: Homo sapiens
[2] = biological target: T1, Interstitial collagenase (Homo sapiens) (UniProt P03956); test: In vitro inhibitory activity against matrix metallo proteinase-1 at 1 uM concentration
T1 sequence (whole entry): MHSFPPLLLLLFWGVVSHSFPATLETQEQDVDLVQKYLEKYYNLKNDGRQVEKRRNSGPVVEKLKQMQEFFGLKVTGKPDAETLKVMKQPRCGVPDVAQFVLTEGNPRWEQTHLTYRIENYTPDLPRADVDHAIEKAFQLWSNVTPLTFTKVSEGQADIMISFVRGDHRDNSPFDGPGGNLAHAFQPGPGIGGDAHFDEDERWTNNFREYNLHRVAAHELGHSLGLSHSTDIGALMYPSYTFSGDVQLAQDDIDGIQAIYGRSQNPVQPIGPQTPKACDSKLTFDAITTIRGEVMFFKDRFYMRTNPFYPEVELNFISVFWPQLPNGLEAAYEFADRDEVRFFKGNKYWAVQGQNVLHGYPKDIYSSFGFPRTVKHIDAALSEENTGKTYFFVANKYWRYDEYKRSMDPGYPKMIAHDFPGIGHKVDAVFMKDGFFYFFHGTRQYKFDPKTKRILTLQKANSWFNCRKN

[3] = biological target: Disintegrin and metalloproteinase domain-containing protein 17 (Homo sapiens, UniProt P78536); test: Inhibitory activity against Tumor necrosis factor alpha converting enzyme
Chain of Disintegrin and metalloproteinase domain-containing protein 17 (P78536 whole entry, the tested form may be a part): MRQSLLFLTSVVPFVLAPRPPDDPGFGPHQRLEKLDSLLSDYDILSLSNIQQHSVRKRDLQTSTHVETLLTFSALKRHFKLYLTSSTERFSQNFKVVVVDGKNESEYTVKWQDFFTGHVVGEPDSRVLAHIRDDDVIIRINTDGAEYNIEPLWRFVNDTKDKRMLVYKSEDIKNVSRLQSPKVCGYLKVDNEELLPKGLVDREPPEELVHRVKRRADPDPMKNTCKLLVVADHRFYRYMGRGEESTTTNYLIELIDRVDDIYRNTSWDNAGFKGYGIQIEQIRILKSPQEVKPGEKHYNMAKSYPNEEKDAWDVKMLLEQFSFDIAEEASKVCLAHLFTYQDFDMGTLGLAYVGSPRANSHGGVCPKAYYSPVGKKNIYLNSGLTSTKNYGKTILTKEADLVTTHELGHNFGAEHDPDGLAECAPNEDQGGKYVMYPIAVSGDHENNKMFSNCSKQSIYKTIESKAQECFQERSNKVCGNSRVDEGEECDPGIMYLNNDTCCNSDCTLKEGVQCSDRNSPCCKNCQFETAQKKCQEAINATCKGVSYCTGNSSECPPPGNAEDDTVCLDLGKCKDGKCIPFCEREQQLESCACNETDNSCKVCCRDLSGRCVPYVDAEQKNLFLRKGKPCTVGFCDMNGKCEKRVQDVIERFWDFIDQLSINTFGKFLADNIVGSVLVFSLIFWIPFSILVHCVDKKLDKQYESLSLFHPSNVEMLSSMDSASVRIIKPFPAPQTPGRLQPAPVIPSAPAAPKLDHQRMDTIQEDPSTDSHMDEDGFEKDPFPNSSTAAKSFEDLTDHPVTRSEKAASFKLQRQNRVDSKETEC

[4] = biological target: Collagenase 3 (Homo sapiens, UniProt P45452); test: In vitro inhibitory activity against matrix metalloprotease-13
[5] = biological target: T2, Interstitial collagenase (Homo sapiens, UniProt P03956); test: In vitro inhibitory activity against matrix metalloprotease-1
T2 sequence (P03956 whole entry): T1 sequence (whole entry)

Compound | inhibition at 3 µM [1] [%] | inhibition [2] [%] | IC50 [3] [nM] | IC50 [4] [nM] | IC50 [5] [nM]
CC#CCOc1ccc(S(=O)(=O)N2Cc3cc(N(C)CCc4ccccn4)ccc3N(C(C)=O)CC2C(=O)NO)cc1 (configuration not stated) | 82 | 19 | 121 | 53 | 
CC#CCOc1ccc(S(=O)(=O)N2Cc3cc(N4CCOCC4)ccc3N(C(C)=O)CC2C(=O)NO)cc1 (configuration not stated) | 73 |  | 130 | 33 | 1260
CC#CCOc1ccc(S(=O)(=O)N2Cc3ccc(CN4CCNCC4)cc3N(C(C)=O)CC2C(=O)NO)cc1 (configuration not stated) | 72 |  | 14 | 17 | 483
CC#CCOc1ccc(S(=O)(=O)N2Cc3ccccc3N(C(=O)c3cccnc3)CC2C(=O)NO)cc1 (configuration not stated) | 33 |  | 89 | 19 | 238
CC#CCOc1ccc(S(=O)(=O)N2Cc3ccccc3N(C(C)=O)CC2C(=O)NO)cc1 (configuration not stated) | 60 |  |  |  | 
CC#CCOc1ccc(S(=O)(=O)N2Cc3ccc(CNC(C)=O)cc3N(C(C)=O)CC2C(=O)NO)cc1 (configuration not stated) | 46 |  | 31 | 12 | 578
CC#CCOc1ccc(S(=O)(=O)N2Cc3ccc(CO)cc3N(C(C)=O)CC2C(=O)NO)cc1 (configuration not stated) | 63 |  | 12 | 20 | 500
CC#CCOc1ccc(S(=O)(=O)N2Cc3cc(N4CCN(C)CC4)ccc3N(C(C)=O)CC2C(=O)NO)cc1 (configuration not stated) | 75 |  | 92 | 21 | 852
CC#CCOc1ccc(S(=O)(=O)N2Cc3ccccc3N(C(=O)COC)CC2C(=O)NO)cc1 (configuration not stated) | 73 |  | 81 | 97 | 853
CC#CCOc1ccc(S(=O)(=O)N2Cc3cc(OCCc4ccccc4)ccc3N(C(C)=O)CC2C(=O)NO)cc1 (configuration not stated) | 83 | 45 | 36 | 28 | 
CC#CCOc1ccc(S(=O)(=O)N2Cc3ccc(CNC)cc3N(C(C)=O)CC2C(=O)NO)cc1 (configuration not stated) | 81 |  | 14 | 32 | 456
CC#CCOc1ccc(S(=O)(=O)N2Cc3ccc(CN(C)C)cc3N(C(C)=O)CC2C(=O)NO)cc1 (configuration not stated) | 70 |  | 18 | 67 | 904
CC#CCOc1ccc(S(=O)(=O)N2Cc3cc(N(C)C)ccc3N(C(C)=O)CC2C(=O)NO)cc1 (configuration not stated) | 33 |  | 197 | 17 | 682
CC#CCOc1ccc(S(=O)(=O)N2Cc3ccccc3N(C(=O)c3cnccn3)CC2C(=O)NO)cc1 (configuration not stated) | 41 |  | 69 | 20 | 356
CC#CCOc1ccc(S(=O)(=O)N2Cc3cc(NCCc4ccccn4)ccc3N(C(C)=O)CC2C(=O)NO)cc1 (configuration not stated) | 44 | 30 | 49 | 47 | 
CC#CCOc1ccc(S(=O)(=O)N2Cc3ccccc3N(C(=O)c3ccco3)CC2C(=O)NO)cc1 (configuration not stated) | 74 |  |  |  | 
CC#CCOc1ccc(S(=O)(=O)N2Cc3ccc(C(=O)NC)cc3N(C(C)=O)CC2C(=O)NO)cc1 (configuration not stated) | 64 |  | 41 | 42 | 813
